From patent US20210145730A1, “PROCESS FOR PREPARING AN ORAL DISINTEGRATING DOSAGE FORM” (Zeenar Enterprises Pty Ltd, priority 2017, published 2021)
Counter-ions that a name gives are not always drawn. Like-named read-outs stand apart in the source and are kept apart here.

Legend:
[1] = cited from earlier work
[2] = WO 2014/179845; cited from earlier work
[3] = SAXS liquid crystalline phase formation for mixes of GMO and another ingredient immersed in PBS buffer (Example 1); type: physicochemical
Method: The samples were then mixed via a roller mixer at ˜10 RPM at 40° C. for at least 3 days. One week prior to SAXS experiment, 100 mg samples were loaded into a transparent polystyrene 96 well plate (Nunc™) and immersed in 200 μL of PBS buffer (pH 6.8). The samples were stored away from light at ambient temperature, to allow the samples to reach equilibrium. The SAXS/WAXS beamline at Australian Synchrotron, Melbourne, Australia was used to determine the liquid crystalline nanostructure in the samples. A custom-designed plate holder was used to mount the samples plate directly onto the SAXS/WAXS beamline. Scans were automated using a pre-loaded set of position variables based on the well positions within the plate, the exposure time was 5 sec. Data were obtained at ambient temperature (˜22° C.). […] The 2-D diffraction images were recorded on a Pilatus 1M detector and radially integrated using the in-house software “ScatterBrain”.

porcine buccal mucosa = experiment: In vitro release through porcine buccal mucosa in Ussing chamber; details: up to 4 hours, n=5
[4] = 20% and above w/w ingredient in mix with GMO
[5] = 1% w/w ingredient in mix with GMO
[6] = 5% w/w ingredient in mix with GMO

In the case of `O=C(O)c1cccnc1` [Niacin], the logP [1] is given as 0.36 and the “liquid crystalline phase formed by blend with GMO” value [2] is given as “hexagonal phase”.
In the case of `CC(C)c1nc(N(C)S(C)(=O)=O)nc(-c2ccc(F)cc2)c1/C=C/[C@@H](O)C[C@@H](O)CC(=O)O` [Rosuvastatin, reference compound], the “Liquid crystalline phase formed” value [3, 4] is reported as “Lamellar”, the Phase structure ([3]; Concentration in GMO 1%) is reported as “V2(Pn3m)” and the Phase structure ([3]; Concentration in GMO 5%) is reported as “V2(Pn3m)”. The Phase structure ([3]; Concentration in GMO 10%) was “V2(Pn3m)”, the Phase structure ([3]; Concentration in GMO 15%) was “V2(Pn3m) + V2(Im3m)” and the Phase structure ([3]; Concentration in GMO 20%) was “Lα”. For the same molecule, the Phase structure ([3]; Concentration in GMO 35%) was “Lα + Lα”, the Phase structure ([3]; Concentration in GMO 50%) was “Lα” and the “limit of inclusion before GMO is prevented from forming a cubic liquid crystalline structure” value ([3]; directly mixed with GMO, contact with hydrophilic solvent) was 15%. The “Liquid crystalline phase formed” value ([3]; up to 15% w/w ingredient in mix with GMO) was “Cubic (2 types)”, the logP ([1]; at pH 5) was 1.80 at pH 5 and the logP ([1]; at pH 7) was 0.30 at pH 7.
With `COc1ccc(O)c(C(C)(C)C)c1` [Butylated hydroxy anisole (BHA), Butylated hydroxy anisole] the “Liquid crystalline phase formed” value [3, 5] was “cubic”, the “Liquid crystalline phase formed” value [3, 6] was “cubic + hexagonal” and the “Liquid crystalline phase formed” value ([3]; 10-20% w/w ingredient in mix with GMO) was “hexagonal”. The “Liquid crystalline phase formed” value ([3]; 30% and above w/w ingredient in mix with GMO) was “reverse emulsion”, the Phase structure ([3]; Concentration in GMO 1%) was “V2(Pn3m)” and the Phase structure ([3]; Concentration in GMO 5%) was “V2(Pn3m) + H2”.
With `O=S(=O)([O-])NC1CCCCC1.[Na+]` [Sodium cyclamate] the “Liquid crystalline phase formed” value ([3]; 20% w/w ingredient in mix with GMO) was “lamellar”, the “Liquid crystalline phase formed” value ([3]; 50% w/w ingredient in mix with GMO) was “lamellar + crystals” and the Phase structure ([3]; Concentration in GMO 1%) was “V2(Pn3m)”. For the same molecule, the Phase structure ([3]; Concentration in GMO 5%) was “V2(Pn3m)”, the Phase structure ([3]; Concentration in GMO 10%) was “V2(Pn3m) + other” and the Phase structure ([3]; Concentration in GMO 20%) was “Lα (lamella)”. The Phase structure ([3]; Concentration in GMO 35%) was “Lα + other”, the Phase structure ([3]; Concentration in GMO 50%) was “Lα + other” and the “Liquid crystalline phase formed” value ([3]; up to 10% w/w ingredient in mix with GMO) was “cubic”.
For `COc1ccc2c3c1O[C@H]1C(=O)CC[C@@]4(O)[C@@H](C2)N(C)CC[C@]314` [Oxycodone], the “release characteristics (appearance of active ingredient in the receptor chamber over time)” value (porcine buccal mucosa) was “prolonged release profile with release continuing steadily at 4 hours”.
In the case of `CNCC(O)c1ccc(O)c(O)c1` (centres unmarked) [Adrenaline], the logP [1] is listed as −0.5 to −1.2.
With `CC1CCC(C(C)C)C(O)C1` (centres unmarked) [Menthol] the “Liquid crystalline phase formed” value [3, 5] was “Cubic”, the “Liquid crystalline phase formed” value ([3]; 1% w/w ingredient in mix with GMO, listed as menthol) was “cubic liquid crystalline structure” and the “Liquid crystalline phase formed” value [3, 6] was “hexagonal liquid crystalline structure”. The “Liquid crystalline phase formed” value ([3]; 5-10% w/w ingredient in mix with GMO) was “Hexagonal”, the “Liquid crystalline phase formed” value [3, 4] was “Lamellar” and the “Liquid crystalline phase formed” value ([3]; 20 to 50% ingredient directly mixed with GMO) was “reverse lamella crystalline structure”. For the same molecule, the Phase structure ([3]; Concentration in GMO 1%) was “V2(Pn3m)”.
With `CCOC(=O)CC(O)(CC(=O)OCC)C(=O)OCC` [Tri ethyl citrate (TEC), Tri ethyl citrate] the “Liquid crystalline phase formed” value ([3]; 35% and above w/w ingredient in mix with GMO) was “reverse emulsion”, the Phase structure ([3]; Concentration in GMO 1%) was “V2(Pn3m) (ie” and the Phase structure ([3]; Concentration in GMO 5%) was “V2(Pn3m)”. The Phase structure ([3]; Concentration in GMO 10%) was “V2(Pn3m)”, the Phase structure ([3]; Concentration in GMO 20%) was “V2(Pn3m)” and the “Liquid crystalline phase formed” value ([3]; up to 20% w/w ingredient in mix with GMO) was “cubic”.
